Results from patent US20240366728A1, “Treatment of Diabetes Mellitus” (Carmot Therapeutics Inc., priority 2023, published 2024).

How the values were obtained:
human GIPR = target: T1, human GIPR (Homo sapiens, UniProt P48546); experiment: receptor internalization (Nano-Glo HiBiT), human GIPR; format: cell-based
T1 sequence (P48546 22-466): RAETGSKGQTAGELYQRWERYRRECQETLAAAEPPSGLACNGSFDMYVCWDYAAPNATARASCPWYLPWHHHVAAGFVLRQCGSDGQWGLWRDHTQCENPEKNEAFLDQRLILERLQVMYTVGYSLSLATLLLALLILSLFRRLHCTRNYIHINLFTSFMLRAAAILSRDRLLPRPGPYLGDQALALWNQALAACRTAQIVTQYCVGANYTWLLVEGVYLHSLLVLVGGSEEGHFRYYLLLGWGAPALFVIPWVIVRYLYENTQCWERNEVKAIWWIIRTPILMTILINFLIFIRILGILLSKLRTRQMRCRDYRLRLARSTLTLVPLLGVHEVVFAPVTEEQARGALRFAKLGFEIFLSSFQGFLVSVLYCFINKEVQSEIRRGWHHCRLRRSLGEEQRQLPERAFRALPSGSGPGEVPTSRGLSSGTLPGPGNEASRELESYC
Method: (§3) GLP-1R and GIPR internalization were measured using Promega's Nano-Glo® HiBit extracellular detection system (Promega Corporation; Madison, WI). Hek293 cells were transiently transfected with HiBiT-tagged hGLP-1R or hGIPR plasmids (Promega Corporation; Madison, WI). Cells were lifted using the TrypLE express enzyme (ThermoFisher Scientific) and plated at 80,000-100,000 cells per well in 96 well plates. Cells were then treated with Nano-Glo HibiT extracellular buffer containing LgBiT protein (1:100), and the Nano-Glo HiBiT extracellular substrate (1:50).
(§4) GLP-1R and GIPR internalization was measured using Promega's Nano-Glo® HiBit extracellular detection system (Promega Corporation; Madison, WI). HEK293 cells were transiently transfected with low quantities of HiBiT-tagged hGLP-1R or hGIPR plasmids (Promega Corporation; Madison, WI). The next day, cells were lifted using TrypLE express enzyme (ThermoFisher Scientific) and plated at 80,000-100,000 cells per well in 96 well plates.

mouse GLP-1R [1] = target: T2, mouse GLP-1R (Mus musculus, UniProt O35659); experiment: β-arrestin-2 recruitment (NanoBiT), mouse GLP-1R; format: cell-based
T2 sequence (O35659 22-463): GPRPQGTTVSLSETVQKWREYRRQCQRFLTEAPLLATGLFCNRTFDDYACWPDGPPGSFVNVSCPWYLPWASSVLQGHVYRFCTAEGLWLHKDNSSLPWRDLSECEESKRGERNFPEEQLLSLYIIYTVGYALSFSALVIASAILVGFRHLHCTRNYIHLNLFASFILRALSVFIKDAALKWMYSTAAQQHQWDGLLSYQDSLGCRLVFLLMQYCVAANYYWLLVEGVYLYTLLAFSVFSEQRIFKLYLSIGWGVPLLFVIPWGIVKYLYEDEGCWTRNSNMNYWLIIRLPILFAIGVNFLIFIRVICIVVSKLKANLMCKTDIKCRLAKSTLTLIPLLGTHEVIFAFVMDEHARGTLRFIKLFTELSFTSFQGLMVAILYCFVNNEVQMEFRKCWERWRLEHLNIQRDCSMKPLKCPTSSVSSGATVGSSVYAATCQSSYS
Method: (§1) To measure GLP-1R and GIPR-mediated β-arrestin recruitment, we utilized Promega's NanoBiT® technology or NanoLuc® Binary Technology. The NanoLuc luciferase is split into two subunits, called LgBiT and SmBIT, which are expressed in HEK293 cells as fusion proteins at the C-terminus of GLP-IR or GIPR and the N-terminus of β-arrestin-2. […] The next day, the media was removed and replaced with […] 1:100 dilution of Nano-Glo® Live Cell Substrate in Opti-MEM™ and equilibrated to room temperature for ten minutes. Background luminescence was measured before 10 nL compound was added using an ECHO Acoustic Liquid Handler.
(§2) To measure GLP-1R and GIPR-mediated β-arrestin recruitment, Promega's NanoBiT® technology or NanoLuc® Binary Technology were utilized. Both allow for the detection and quantification of protein: protein interactions in live cells (Samms et al., Trends Endocrinol Metab 31:410-21). The NanoLuc luciferase is split into two subunits, called LgBiT and SmBIT, which are expressed in HEK293 cells as fusion proteins at the C-terminus of GLP-1R or GIPR and the N-terminus of β-arrestin-2, respectively. […] The next day, media was removed and replaced with 10 μL 1:100 dilution of Nano-Glo® Live Cell Substrate in Optimem and equilibrated to room temperature for ten minutes. Background luminescence was measured before 10 nL compound was added using an ECHO Acoustic Liquid Handler. Luminescence was measured at 1.5-minute intervals for 30 minutes.

mouse GIPR [2] = target: T3, mouse GIPR (Mus musculus, UniProt Q0P543); experiment: cAMP accumulation (HitHunter cAMP assay), mouse GIPR CHO-K1 cells
T3 sequence (Q0P543 19-460): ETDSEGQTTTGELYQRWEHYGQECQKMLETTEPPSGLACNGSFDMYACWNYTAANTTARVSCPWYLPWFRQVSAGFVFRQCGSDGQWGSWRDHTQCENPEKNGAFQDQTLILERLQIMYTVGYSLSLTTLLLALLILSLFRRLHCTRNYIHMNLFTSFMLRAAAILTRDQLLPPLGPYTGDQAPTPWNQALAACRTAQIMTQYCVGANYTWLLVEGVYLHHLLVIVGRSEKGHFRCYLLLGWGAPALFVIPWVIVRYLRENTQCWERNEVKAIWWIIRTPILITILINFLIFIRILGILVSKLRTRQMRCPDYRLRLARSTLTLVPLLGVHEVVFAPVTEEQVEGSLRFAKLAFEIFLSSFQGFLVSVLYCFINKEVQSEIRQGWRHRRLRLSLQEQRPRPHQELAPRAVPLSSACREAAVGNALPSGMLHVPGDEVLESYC

mouse GIPR [3] = target: T3, mouse GIPR; experiment: β-arrestin-2 recruitment (NanoBiT), mouse GIPR; format: cell-based
Method: as §1, §2

human GLP-1R = human GLP-1R (Homo sapiens, UniProt P43220); experiment: receptor internalization (Nano-Glo HiBiT), human GLP-1R; format: cell-based; set-up: host or cells: HEK293
Method: as §3, §4

mouse GLP-1R [4] = target: T2, mouse GLP-1R; experiment: cAMP accumulation (HitHunter cAMP assay), mouse GLP-1R U2OS cells

Chain of human GLP-1R (P43220 24-463): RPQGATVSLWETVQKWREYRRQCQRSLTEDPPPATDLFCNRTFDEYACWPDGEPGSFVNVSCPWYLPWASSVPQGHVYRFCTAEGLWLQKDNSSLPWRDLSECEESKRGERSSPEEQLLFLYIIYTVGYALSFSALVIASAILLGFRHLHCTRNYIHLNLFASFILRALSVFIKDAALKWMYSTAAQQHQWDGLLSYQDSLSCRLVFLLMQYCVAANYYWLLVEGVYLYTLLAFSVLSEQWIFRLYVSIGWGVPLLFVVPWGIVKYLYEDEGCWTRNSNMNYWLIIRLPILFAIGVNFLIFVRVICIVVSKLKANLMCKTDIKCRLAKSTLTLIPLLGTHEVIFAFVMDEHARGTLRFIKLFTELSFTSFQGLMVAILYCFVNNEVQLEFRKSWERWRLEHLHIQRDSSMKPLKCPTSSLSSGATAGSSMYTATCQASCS

SMILES | Emax (human GIPR; Table 17, read-out: hGIPR Internalization % Emax) | EC50 (mouse GLP-1R [1]; Table 17, read-out: mGLP-1R β-arrestin-2 EC50) | Emax (mouse GLP-1R [1]; read-out: mGLP-1R β-arrestin-2 % Emax, Table 17) | Emax (mouse GIPR [2]; CHO-K1, read-out: mGIPR cAMP (-alb) % Emax) | Emax (mouse GIPR [3]; read-out: mGIPR β-arrestin-2 % Emax, Table 17) | Emax (human GLP-1R; Table 17, read-out: hGLP-1R Internalization % Emax) | Emax (mouse GLP-1R [4]; U2OS, read-out: mGLP-1R cAMP (-alb) % Emax) | human GIPR surface expression (in words) (human GIPR) | recruitment of β-arrestin-2 to mouse GLP-1R (mouse GLP-1R [1]) | native ligand mediated recruitment of β-arrestin-2 at GLP-1R (in words) (mouse GLP-1R [1]; antagonist mode vs GLP-1) | agonist type for cAMP accumulation at mouse GIPR (in words) (mouse GIPR [2]) | times lower potency than GIP (mouse GIPR [2]; cAMP, mouse GIPR) | native ligand mediated recruitment of β-arrestin-2 at GIPR (in words) (mouse GIPR [3]; antagonist mode vs GIP) | recruitment of β-arrestin-2 to mouse GIPR (mouse GIPR [3]; vs GIP) | GLP-1R expression after two hours of exposure (in words) (human GLP-1R) | agonist type for cAMP accumulation at mouse GLP-1R (in words) (mouse GLP-1R [4]) | times less potent than Liraglutide (mouse GLP-1R [4]; cAMP, mouse GLP-1R) | times less potent than native ligand GLP-1 (mouse GLP-1R [4]; cAMP, mouse GLP-1R)
CCCCCCCCCCCCCCCC(=O)N[C@@H](CCC(=O)NCCCC[C@H](NC(=O)[C@H](CO)NC(=O)[C@@H]1CCCN1C(=O)[C@@H]1CCCN1C(=O)[C@@H]1CCCN1C(=O)[C@H](C)NC(=O)CNC(=O)[C@H](CO)NC(=O)[C@H](CO)NC(=O)[C@@H]1CCCN1C(=O)CNC(=O)CNC(=O)[C@H](C)NC(=O)[C@H](CC(C)C)NC(=O)[C@H](CC(C)C)NC(=O)[C@H](Cc1c[nH]c2ccccc12)NC(=O)[C@H](CC(N)=O)NC(=O)[C@@H](NC(=O)[C@H](Cc1ccccc1)NC(=O)[C@H](CCC(=O)O)NC(=O)C(C)(C)NC(=O)[C@H](C)NC(=O)[C@H](C)NC(=O)[C@H](CCC(N)=O)NC(=O)[C@H](CCCCN)NC(=O)[C@H](CC(=O)O)NC(=O)[C@H](CC(C)C)NC(=O)[C@H](Cc1ccc(O)cc1)NC(=O)[C@@H](NC(=O)[C@H](CO)NC(=O)[C@H](Cc1ccc(O)cc1)NC(=O)[C@H](CC(=O)O)NC(=O)[C@H](CO)NC(=O)[C@@H](NC(=O)[C@H](Cc1ccccc1)NC(=O)[C@@H](NC(=O)CNC(=O)[C@H](CCC(=O)O)NC(=O)CSCC(=O)NCCN1CCCCC1=O)[C@@H](C)O)[C@@H](C)O)[C@@H](C)CC)C(C)C)C(N)=O)C(=O)O [CT-868] | -11% | 0.021 µM | 4.69% | 36% | -1.92% | -13% | 95% |  |  |  |  |  |  |  |  |  |  | 
CCCCCCCCCCCCCCCC(=O)N[C@@H](CCC(=O)NCCCC[C@H](NC(=O)[C@H](CO)NC(=O)[C@@H]1CCCN1C(=O)[C@@H]1CCCN1C(=O)[C@@H]1CCCN1C(=O)[C@H](C)NC(=O)CNC(=O)[C@H](CO)NC(=O)[C@H](CO)NC(=O)[C@@H]1CCCN1C(=O)CNC(=O)CNC(=O)[C@H](C)NC(=O)[C@H](CC(C)C)NC(=O)[C@H](CC(C)C)NC(=O)[C@H](Cc1c[nH]c2ccccc12)NC(=O)[C@H](CC(N)=O)NC(=O)[C@@H](NC(=O)[C@H](Cc1ccccc1)NC(=O)[C@H](CCC(=O)O)NC(=O)C(C)(C)NC(=O)[C@H](C)NC(=O)[C@H](C)NC(=O)[C@H](CCC(N)=O)NC(=O)[C@H](CCCCN)NC(=O)[C@H](CC(=O)O)NC(=O)[C@H](CC(C)C)NC(=O)[C@H](Cc1ccc(O)cc1)NC(=O)[C@@H](NC(=O)[C@H](CO)NC(=O)[C@H](Cc1ccc(O)cc1)NC(=O)[C@H](CC(=O)O)NC(=O)[C@H](CO)NC(=O)[C@@H](NC(=O)[C@H](Cc1ccccc1)NC(=O)[C@@H](NC(=O)CNC(=O)[C@H](CCC(=O)O)NC(=O)CSCC(=O)NCCN1C(=O)CSC1=O)[C@@H](C)O)[C@@H](C)O)[C@@H](C)CC)C(C)C)C(N)=O)C(=O)O [CT-859] |  |  |  |  |  |  |  | stimulating greater surface expression than vehicle | < 5% | inhibited | partial agonist | 48 times | inhibited | < 5% | higher versus vehicle-treated cells | full agonist | 12 times | 113 times
